Results from paper PMC11908448 (Bioorganic chemistry, 2019).
Like-named read-outs stand apart in the source and are kept apart here.

Assays:
Bovine XO [1] = molecular target: T1, Bovine XO (Bos taurus, UniProt P80457); test: Determination of inhibitory potency against XO activity; assay type: biochemical
Bovine XO [2] = molecular target: T1, Bovine XO; settings: cited from earlier work

T1 sequence (P80457 whole entry): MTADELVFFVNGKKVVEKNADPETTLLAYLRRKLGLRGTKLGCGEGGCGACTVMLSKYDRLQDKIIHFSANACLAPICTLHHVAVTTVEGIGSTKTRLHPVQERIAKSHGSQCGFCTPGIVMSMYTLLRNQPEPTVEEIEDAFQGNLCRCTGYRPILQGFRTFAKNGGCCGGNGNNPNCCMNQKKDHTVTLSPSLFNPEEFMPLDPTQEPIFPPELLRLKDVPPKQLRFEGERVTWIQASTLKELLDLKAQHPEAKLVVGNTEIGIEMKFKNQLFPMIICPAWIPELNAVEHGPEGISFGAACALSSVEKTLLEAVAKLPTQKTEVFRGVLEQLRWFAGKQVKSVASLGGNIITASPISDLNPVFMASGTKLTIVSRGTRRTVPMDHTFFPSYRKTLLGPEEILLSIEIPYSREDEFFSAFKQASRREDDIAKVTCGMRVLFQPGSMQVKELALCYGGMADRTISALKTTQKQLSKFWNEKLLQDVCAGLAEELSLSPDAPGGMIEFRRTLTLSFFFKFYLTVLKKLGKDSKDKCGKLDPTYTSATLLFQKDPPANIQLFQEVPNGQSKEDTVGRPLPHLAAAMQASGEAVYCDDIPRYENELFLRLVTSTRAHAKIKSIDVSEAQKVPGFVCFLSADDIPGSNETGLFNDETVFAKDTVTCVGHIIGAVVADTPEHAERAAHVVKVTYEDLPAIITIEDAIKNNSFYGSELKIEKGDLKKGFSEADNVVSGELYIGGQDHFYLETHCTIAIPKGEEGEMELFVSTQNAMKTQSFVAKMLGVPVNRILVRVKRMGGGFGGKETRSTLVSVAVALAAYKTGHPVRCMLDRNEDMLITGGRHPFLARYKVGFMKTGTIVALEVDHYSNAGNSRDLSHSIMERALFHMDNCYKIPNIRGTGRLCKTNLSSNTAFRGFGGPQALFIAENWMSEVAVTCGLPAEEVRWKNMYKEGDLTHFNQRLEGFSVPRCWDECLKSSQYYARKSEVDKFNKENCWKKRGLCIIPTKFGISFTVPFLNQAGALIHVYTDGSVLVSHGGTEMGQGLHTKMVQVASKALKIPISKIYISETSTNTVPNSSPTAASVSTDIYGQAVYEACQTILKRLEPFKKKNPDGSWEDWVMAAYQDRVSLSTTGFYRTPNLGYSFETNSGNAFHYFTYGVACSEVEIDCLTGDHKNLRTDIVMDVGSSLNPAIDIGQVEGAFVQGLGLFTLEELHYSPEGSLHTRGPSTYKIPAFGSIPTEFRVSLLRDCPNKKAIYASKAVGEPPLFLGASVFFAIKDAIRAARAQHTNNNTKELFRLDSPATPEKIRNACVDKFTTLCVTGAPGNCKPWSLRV

Row | SMILES | XO inhibitory potency (in words) (Bovine XO [1]; reported by others [41] or measured by the authors) | IC50 (Bovine XO [1]) [nM] | mode of XO inhibition (Bovine XO [2]; kinetic studies) | XO inhibitory potency (in words) (Bovine XO [2]; literature statement)
1 | Cc1nc(-c2ccc(OCC(C)C)c(C#N)c2)sc1C(=O)O [febuxostat, Febuxostat, reference compound] | low nanomolar or subnanomolar range | – | – | –
2 | O=C(/C=C/c1ccc(O)c(O)c1)OCCc1ccccc1 [Compound 1, (E)-phenethyl 3-(3,4-dihydroxyphenyl)acrylate] | – | 3900 | competitive inhibitor | low micromolar range
3 | O=C(/C=C/c1ccc(O)c(O)c1)Oc1ccccc1 [Compound 8, (E)-phenyl 3-(3,4-dihydroxyphenyl)acrylate] | – | ~250 | – | –
